Paper PMC10311245, “Novel leaderless bacteriocin geobacillin 6 from thermophilic bacterium Parageobacillus thermoglucosidasius” (Frontiers in Microbiology, 2023)
No end group written: not given here.

Key:
[1] = Thermal shift assay (differential scanning fluorimetry, SYPRO Orange); assay type: physicochemical; details: DSF, called inconclusive; for Melting temperature (Tm): 20–95°C, triplicate
Protocol: As an indicator of thermal denaturation in varying pH or other conditions a fluorescent SYPRO Orange dye (Invitrogen) that binds to hydrophobic parts of protein during its unfolding was used in this work. SYPRO Orange 50× stock solution was prepared by diluting 2.5 μl of 5,000× concentrate into 250 μl of deionized (DI) water. A volume of 2.5 μl of 50× SYPRO Orange was aliquoted into a white HardShell 96-well PCR plate (Bio-Rad). Different pH buffer solutions (25 mM Briton-Robinson, pH 3–11; [Bendikienė et al., 2004]) were added to aliquoted SYPRO Orange followed by adding an appropriately diluted solution of purified Geo6 into the wells at a final concentration of 0.25 nmol/ml (1.3 μg/ml). The final volume of the mixture was 25 μl. The negative control was 25 mM of Briton-Robinson buffer solutions in a range of pH 3 to 11, with 2.5 μl of SYPRO Orange. Lysozyme (final concentration of 100 μg/ml) diluted in 25 mM Briton-Robinson buffer (pH 5 and 6) and mixed with 2.5 μl of SYPRO Orange was used as a positive control. A curve experiment for DNA with the elimination of the initial denaturation step at 95°C was used. The melt curve temperature range was set from 20°C to 95°C in increments of 0.5°C for 5 s. Each experimental condition was prepared in triplicate. Thermal shift analysis or differential scanning fluorimetry (DSF) of Geo6 was performed in CFX Touch Real TIME PCR System (Bio-Rad) using CFX Manager (Bio-Rad) software.

[2] = Bacteriocin stability in different pH ranges (activity by spot on a lawn assay after incubation); assay type: physicochemical; details: pH range 3–11, 25 mM Britton-Robinson buffer, 1:20, room temperature 2 h, neutralized to pH 7; spot on a lawn read-out
Protocol: For evaluation of stability at different pH ranges, purified recombinant Geo6 was mixed with 25 mM Britton-Robinson buffer solutions ([Ebihara et al., 2016]) with different pH values in a ratio of 1:20. After incubation at room temperature for 2 h samples were neutralized with NaOH or HCl solutions to pH 7. Further, samples were diluted two-fold using a medium and assessed for antibacterial activity using spot on a lawn assay.

[3] = test system: Geobacillus lituanicus DSM 15325^T; assay type: cell-based
Protocol: (§1) MICs of Geo6 were determined according to the method of [Wiegand et al. (2008)] with some modifications. An indicator strain sensitive to bacteriocin was grown overnight at 55°C in a thermoshaker. The next day it was inoculated (2–3%) into fresh medium and cultivated until OD reached 1–1.5. The culture was further diluted and adjusted to 1 × 10^6 CFU/ml. A 95 μl of the medium was mixed with 5 μl of Geo6 and serial two-fold dilutions of suspension were made with the medium. Next, diluted mixtures were dispersed (100 μl) in a 96-well plate. A volume of 100 μl of previously prepared cell suspension was dispersed and mixed with the diluted bacteriocin in every well on the plate. As a result, the final volume of suspension in the well containing diluted bacteriocin and bacteria cells was 200 μl and the final concentration of the bacteria culture in the well was 5 × 10^5 CFU/ml. For each experiment, three replicates were made in the plate. Wells with positive controls contained a mixture of medium (95 μl) and Geo6 (5 μl), and negative controls contained bacteria suspension (5 × 10^5 CFU/ml) in the medium (100 μl). The plate was placed into a bag to prevent medium evaporation and put into a box, which was incubated overnight at 55°C in a thermoshaker. The next day, the growth inhibition was evaluated in the wells of the plate.

[4] = test system: Geobacillus kaustophilus HTA 426; assay type: cell-based
Protocol: as §1

[5] = test system: Geobacillus thermodenitrificans DSM 465^T; assay type: cell-based
Protocol: as §1

[6] = test system: Parageobacillus toebii DSM 14590^T; assay type: cell-based
Protocol: as §1

[7] = test system: Geobacillus thermoleovorans DSM 5366^T; assay type: cell-based
Protocol: as §1

[8] = Bacteriocin thermostability (activity by spot on a lawn assay after incubation); assay type: physicochemical; details: spot on a lawn read-out; for Antibacterial activity retained after heat treatment: two-fold dilutions
Protocol: […] After incubation, serial two-fold dilutions of samples were made using medium, and further antibacterial activity of bacteriocin was assessed by spot on a lawn assay.

[9] = test system: G. kaustophilus HTA 426^T; assay: Live/dead assay (membrane integrity, SYTO9 and PI); assay type: cell-based, Geobacillus kaustophilus; details: 600 nM Geo6, 30 min, BHI, 55°C; fluorescence microscopy; red = damaged membrane
Protocol: An indicator strain G. kaustophilus HTA 426^T sensitive to bacteriocin was grown in BHI medium at 55°C till OD 0.5 was reached. Next, the bacteria culture was treated with 600 nM of Geo6 and further cultivated for 30 min. Then, the cell culture was centrifuged at 3000 ×g for 5 min and further washed two times with 0.9% NaCl solution (centrifuged at 3000 ×g for 5 min). After the last wash, cells were suspended in 0.9% NaCl solution and stained using LIVE/DEAD BacLight Bacterial Viability Kit (Invitrogen) containing SYTO9 and […] according to manufacturers’ recommendations. Cells were incubated in the dark at room temperature for 15 min. Next, cells were centrifuged at 3000 ×g for 5 min and washed two times with 0.9% NaCl solution (centrifuged at 3000 ×g for 5 min). Further, 10 μl of Geo6 treated cells and nontreated control cells suspensions were spotted onto objective slides and examined using a fluorescence microscope using filters FITC (480/500 nm) and Texas Red (490/635 nm).

B. campestris ATCC 43754 = details: ref Acedo et al., 2016; cited from earlier work
From the text: (§2) For comparison, previous studies have shown that pallidocin, a glycocin-type bacteriocin produced by thermophilic bacteria A. pallidus strain 8, was active in the pM range against other thermophiles, and a 2.4 pM concentration of pallidocin inhibited the growth of thermophilic bacterium P. genomospecies 1 strain NUB36187 ([Kaunietis et al., 2019]). Other leaderless bacteriocins are active in the μM and nM ranges ([Fujita et al., 2007]; [Iwatani et al., 2007]) and have a broad spectrum of activity.

L. lactis ATCC 19257 = details: ref Acedo et al., 2016; cited from earlier work
From the text: as §2

[10] = CD spectroscopy, aqueous buffers; reversible two-state conversion between helical and unfolded forms; ref Hammond et al., 2020; cited from earlier work
From the text: A recent study using the CD spectroscopy method confirmed the formation of helical structures in epidermicin NI01 and aureocin A53 in aqueous buffers. […] Due to these interesting findings, we decided to employ a thermal shift assay, also known as differential scanning fluorimetry (DSF), to analyze the thermal denaturation of Geo6 under different pH ranges and temperatures. Additionally, to the best of our knowledge, this ...

[11] = test system: P. genomospecies 1 strain NUB36187; details: thermophilic bacterium; ref Kaunietis et al., 2019; cited from earlier work
From the text: as §2

B. coagulans JCM 2257^T = details: ref Iwatani et al., 2007; cited from earlier work
From the text: as §2

[12] = test system: P. dextrinicus JCM 5887^T; details: ref Iwatani et al., 2007; cited from earlier work
From the text: as §2

[13] = test system: L. sakei subsp. sakei JCM 1157^T; details: ref Iwatani et al., 2007; cited from earlier work
From the text: as §2

Escherichia coli JM109 = details: ref Iwatani et al., 2007; cited from earlier work
From the text: as §2

## GMATFLRIVAQLSSKAAKWALDNKDKVLKWIRDGMAIDWIIDKINDIVG [Geo6, geobacillin 6]
[1]; 25 mM Briton-Robinson buffer pH 8, 0.25 nmol/ml (1.3 μg/ml)
  Melting temperature (Tm): none
[1]; 25 mM Briton-Robinson buffer pH 9, 0.25 nmol/ml (1.3 μg/ml)
  Melting temperature (Tm): 76.75±1.77 °C
[1]; 25 mM Briton-Robinson buffer pH 10, 0.25 nmol/ml (1.3 μg/ml)
  Melting temperature (Tm): 76.5 °C
[1]; 25 mM Briton-Robinson buffer pH 11, 0.25 nmol/ml (1.3 μg/ml)
  Melting temperature (Tm): 80.5±0.7 °C
[1]; range of pH 9–11, 20–95°C
  Melting temperatures (Tm), partial unfolding: 76.5–80.5 °C
[2]
  Antibacterial activity retained after incubation at different pH: 100%
[3]
  MIC: 0.585 µM
[4]
  MIC: 0.293 µM
[5]
  MIC: 2.34 µM
[6]
  MIC: 4.45 µM
[7]
  MIC: 0.585 µM
[8]; 60°C for 2 h
  Antibacterial activity retained after heat treatment: 100%
[8]; 70°C for 2 h
  Antibacterial activity retained after heat treatment: 100%
[8]; 95°C for 6 h
  Antibacterial activity retained after heat treatment: did not abolish its activity
[8]; 95°C for 6 h, listed as Geobacillin 6
  Antibacterial activity retained after heat treatment: 100%
[8]; 100°C for 2 h
  Antibacterial activity retained after heat treatment: 100%
[8]; room temperature for 24 h
  Antibacterial activity retained after incubation at room temperature: 100%
[9]
  Membrane integrity (SYTO9/PI fluorescence of treated cells): all the cells exhibited red fluorescence

## aureocin A54 (MSWLNFLKYIAKYGKKAVSAAWKYKGKVLEWLNVGPTLEWVWQKLKKIAGL; UniProt Q8GPI4 1-51, looked up)
B. campestris ATCC 43754
  MIC: 2 µM
L. lactis ATCC 19257
  MIC: 0.25 µM

## epidermicin NI01
[10]
  Denaturation temperature: 60 °C

## pallidocin
[11]
  Concentration that inhibited growth: 2.4 pM

## lacticin Q
B. coagulans JCM 2257^T
  MIC: 0.0016 µM
[12]
  MIC: 0.0073 µM
[13]
  MIC: 0.0032 µM
Escherichia coli JM109
  Antibacterial activity: No activity was detected
